Where a name gives a salt, the structure may show the parent alone. Read-outs that look alike come from different tables or passages of the source.
Experiments:
Intraocular Pressure [1] = assay: Rhesus Monkey - Laser Model, IOP lowering after topical administration; type: in vivo, Rhesus monkeys; settings: laser-induced ocular hypertension, peak effect, percentage change in the hypertensioned eye versus the same eye at the same hour the previous day
Experimental: A. Rhesus Monkey - Laser Model
Ocular hypertension was produced in adult Rhesus monkeys (4) via an argon laser photocoagulation of trabecular meshwork in the eye. The treated eye (only one is lasered) was allowed to heal and the IOP stabilized after about six weeks. Tests were performed by topical administration of one drop of a 0.5% solution of-the test agent to the Ketamine anesthetized Rhesus monkey's eye. The IOP charge was recorded by an Alcon Applanation Phneumatonograph. The peak effect was recorded as a percentage change in the hypertensioned eye versus the IOP value of the same eye recorded at the same hour the previous day.

Intraocular Pressure [2] = assay: Normal Rabbit Model, IOP lowering after topical administration; type: in vivo, New Zealand albino rabbits; settings: Oryctolagus cuniculus, read-out: (B) 50uL 1% topical Normal Rabbit %IOP
Experimental: To determine the IOP reduction efficacy of the anti-glaucoma drugs of the invention in normal albino rabbits the following was done.
New Zealand albino rabbits (12) were acclimatized in restraining boxes for thirty minutes. Alcaine/ saline (1:5) was applied to the rabbit eyes and baseline IOP in mm Hg pressure were measured using an Alcon Laboratory Applanation Phneumatonograph. Then thirty minutes later, the coded test substance versus a coded saline control was administered as a 50 ul drop to one eye, six animals in each group. The treatment effects were measured as a function of time. Mean IOP and mean change in IOP for each hourly reading was recorded.
The effect cited is a peak percentage effect versus the external control test group.

[3] = 50uL 1% topical to one eye, peak percentage effect versus the external (saline) control group

Row | Structure (SMILES) | (A) 50uL 0.5% topical Laser-Monkey %IOP (Intraocular Pressure [1]) [%] | change in vivo at 1 % (Intraocular Pressure [2]; [3]) [%] | change in vivo at 1 % (Intraocular Pressure [2]; topical) [%]
1 | Clc1cccc(Cl)c1N=C1NCCN1 [2,6-Dichloro-N-2-imidazolidinylidene-benezamine, reference compound] | -32.0 | -13.9 | 
2 | Nc1ccc(Cl)c(N=C2NCCN2)c1Cl [2,6-Dichloro-N^1-(2-imidazolidinylidene)-1,3-benzenediamine hydrochloride] |  |  | 0
3 | Cl.Cl.Nc1cc(Cl)c(N=C2NCCN2)c(Cl)c1 [2,6-Dichloro-N^1-(2-imidazolidinylidene)-1,4-benzenediamine Dihydrochloride] | -21.0 | -1.3 | 
4 | CN(C)c1cc(Cl)c(N=C2NCCN2)c(Cl)c1 [2,6-Dichloro-N^1-(2-imidazolidinylidene)-N^4, N^4-dimethyl-1,4-benzenediamine Dihydrochloride] |  |  | -10.2
5 | CCOC(=O)c1cc(Cl)c(N=C2NCCN2)c(Cl)c1 [3,5-Dichloro-4-(2-imidazolidinylideneamino)-benzoic acid ethyl ester] |  | -5.6 | 
6 | O=C(O)c1cc(Cl)c(N=C2NCCN2)c(Cl)c1 [3,5-Dichloro-4-(2-imidazolidinylideneamino)-benzoic acid] |  | -4.5 | 
7 | Cl.Oc1cc(Cl)c(N=C2NCCN2)c(Cl)c1 [3,5-Dichloro-4-(2-imidazolidinylideneamino)-phenol Hydrochloride] | -23.0 |  | -7.4
8 | OCc1cc(Cl)c(N=C2NCCN2)c(Cl)c1 [3.5-Dichloro-4-(2-imidazolidinylideneamino)-benzenemethanol] | -17 | 0 | 
9 | N#Cc1cc(Cl)c(N=C2NCCN2)c(Cl)c1 [4-Cyano-2,6-dichloro-N-(2-imidazolidinylidene)-benzamine Hydrochloride] |  | -2.3 | 
10 | O=CNc1cc(Cl)c(N=C2NCCN2)c(Cl)c1 [N-[3,5-Dichloro-4-(2-imidazolidinylideneamino) -phenyl]-formamide Free Base] | -26.0 | -15.6 | 
11 | CC(=O)Nc1cc(Cl)c(N=C2NCCN2)c(Cl)c1.Cl [N-[3,5-Dichloro-4-(2-imidazolidinylideneamino)-phenyl]-acetamide Hydrochloride] | -4.0 | -19 | 
